In patent US10618902B2, “Substituted pyrido[2,3-d]pyrimidines as inhibitors of protein kinases” (Celgene CAR LLC, priority 2013, dated 2020):
Read-outs that look alike come from different tables or passages of the source.

Tests used:
FGFR4-WT = FGFR4-WT (Homo sapiens (Human), UniProt P22455); assay: Omnia assay for potency against FGFR4 enzyme; assay type: biochemical; settings: method a: FGFR4-WT (Invitrogen) 10 nM, ATP 300 uM, Y10-Sox 10 uM
Protocol: A 10× stock solution of FGFR4-WT (PR4380C or P3054), (from Invitrogen, Carlsbad, Calif.) corresponding to method a in Table 10, was prepared as described below. Alternatively, a 10× stock solution of FGFR4-WT (F01-11G), (SignalChem, Richmond, BC) corresponding to method b in Table 10, was prepared as described below. A solution of 1.4×ATP (AS001A) and 5× Tyr-Sox conjugated peptide substrate (KNZ3101) were prepared in 1× kinase reaction buffer consisting of 20 mM Tris, pH 7.5, 5 mM MgCl2, 1 mM EGTA, 5 mM […], 5% glycerol (10× stock, KB002A) and 0.2 mM DTT (DS001A). […] The serially diluted compounds were prepared on a Tecan EVO100. A second addition of 10 μl of Tyr-Sox FGFR4 substrate was added to each well and the kinase reactions were started with the addition of 35 μL of 1.4×ATP. The reactions were monitored every 71 seconds for 240 minutes at λex360/λem485 in a Synergy plate reader from BioTek (Winooski, Vt.). […] Methods:
a) [FGFR4-WT]=10 nM, [ATP]=300 uM, [Y10-Sox]=10 uM (ATP KMapp−300 uM),

Huh7 cells = assay: Cell proliferation, Huh7 (CellTiter Glo); assay type: cell-based
Protocol: (§1) The growth inhibition (GI50) values were determined by Graph Pad Prism.

pFGFR4 (Huh7 cells) = pFGFR4 (Huh7 cells) (Homo sapiens (Human), UniProt P22455); assay: FGFR4 signaling (pFGFR4) in Huh7 cells (MSD); assay type: cell-based; settings: read-out: Signaling EC50 (nM) pFGFR4 (Huh)
MDA-MB-453 cells = assay: Cell proliferation, MDA-MB-453 (CellTiter Glo); assay type: cell-based; settings: 96 hr
Protocol: as §1

[1] = 120 hr, read-out: Cell Proliferation GI50 (nM) HUH

Sequence of pFGFR4 (Huh7 cells) (P22455 22-802): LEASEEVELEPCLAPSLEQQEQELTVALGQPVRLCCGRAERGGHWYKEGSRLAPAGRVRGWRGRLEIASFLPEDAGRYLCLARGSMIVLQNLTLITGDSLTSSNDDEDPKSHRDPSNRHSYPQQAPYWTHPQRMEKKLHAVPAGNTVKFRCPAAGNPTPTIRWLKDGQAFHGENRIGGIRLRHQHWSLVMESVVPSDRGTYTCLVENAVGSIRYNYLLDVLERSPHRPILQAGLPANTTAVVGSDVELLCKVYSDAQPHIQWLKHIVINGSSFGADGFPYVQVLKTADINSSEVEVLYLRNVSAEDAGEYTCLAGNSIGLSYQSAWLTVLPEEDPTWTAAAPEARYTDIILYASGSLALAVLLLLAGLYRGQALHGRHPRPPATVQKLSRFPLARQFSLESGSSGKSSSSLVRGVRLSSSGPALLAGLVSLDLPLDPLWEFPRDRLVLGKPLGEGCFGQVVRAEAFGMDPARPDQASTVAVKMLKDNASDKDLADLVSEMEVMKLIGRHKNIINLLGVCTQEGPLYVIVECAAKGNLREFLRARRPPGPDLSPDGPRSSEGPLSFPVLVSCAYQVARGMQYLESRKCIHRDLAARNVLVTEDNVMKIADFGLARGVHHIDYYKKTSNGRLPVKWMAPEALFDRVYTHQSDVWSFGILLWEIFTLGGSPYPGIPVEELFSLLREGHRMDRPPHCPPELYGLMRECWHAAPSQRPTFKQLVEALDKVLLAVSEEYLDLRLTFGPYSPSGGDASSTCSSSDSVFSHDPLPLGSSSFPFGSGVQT
Sequence of FGFR4-WT (P22455 22-802): as above

Row | IC50 (FGFR4-WT) [nM] | GI50 (Huh7 cells; Homo sapiens, Huh-7, 120 hr) [nM] | EC50 (pFGFR4 (Huh7 cells)) [nM] | GI50 (Huh7 cells; [1]) [nM] | GI50 (MDA-MB-453 cells; Homo sapiens) [nM] | GI50 (MDA-MB-453 cells) [nM] | Compound
1 | < 100 | < 100 | < 100 | – | – | – | C=CC(=O)NC1CN(c2ccn(C)n2)CC1Nc1ncc2cc(-c3c(Cl)c(OC)cc(OC)c3Cl)c(=O)n(C)c2n1 (stereo not shown) [Compound I-248]
2 | < 100 | – | < 100 | – | – | – | C=CC(=O)N[C@H]1COC[C@H]1Nc1ncc2cc(-c3c(Cl)c(OC)cc(OC)c3Cl)c(=O)nc-2n1CCF [Compound I-304]
3 | < 100 | – | < 100 | – | – | – | C=CC(=O)N[C@H]1COC[C@H]1Nc1ncc2cc(-c3c(Cl)c(OC)cc(OC)c3Cl)c(=O)nc-2n1C1CCOCC1 [Compound I-300]
4 | < 100 | – | < 100 | 101 to 500 | – | – | C=CC(=O)N[C@H]1COC[C@H]1Nc1ncc2cc(-c3c(Cl)c(OC)cc(OC)c3Cl)c(=O)nc-2n1CCO [Compound I-303]
5 | < 100 | < 100 | < 100 | – | – | – | C=CC(=O)N[C@H]1COC[C@H]1Nc1ncc2cc(-c3c(Cl)c(OC)cc(OC)c3Cl)c(=O)[nH]c2n1 [Compound I-290]
6 | < 100 | – | < 100 | – | – | – | C=CC(=O)NC1CN(c2ccccn2)CC1Nc1ncc2cc(-c3c(Cl)c(OC)cc(OC)c3Cl)c(=O)n(C)c2n1 (stereo not shown) [Compound I-252]
7 | < 100 | – | < 100 | – | – | – | C=CC(=O)NC1CS(=O)(=O)CC1Nc1ncc2cc(-c3c(Cl)c(OC)cc(OC)c3Cl)c(=O)n(C)c2n1 (stereo not shown) [Compound I-256]
8 | < 100 | – | < 100 | – | – | – | C=CC(=O)Nc1cc(-c2cnn(C)c2)ccc1Nc1ncc2cc(-c3c(Cl)c(OC)cc(OC)c3Cl)c(=O)n(C)c2n1 [Compound I-264]
9 | – | < 100 | – | – | 101 to 500 | – | C=CC(=O)N[C@H]1COC[C@H]1Nc1ncc2cc(-c3c(F)c(OC)cc(OC)c3F)c(=O)n(C)c2n1 [Compound I-281]
10 | – | – | – | – | < 100 | – | C=CC(=O)N[C@H]1COC[C@H]1Nc1ncc2cc(-c3c(Cl)c(OC)cc(OC)c3Cl)c(=O)n(C)c2n1 [Compound I-241]
11 | < 100 | – | < 100 | < 100 | – | – | C=CC(=O)N[C@H]1COC[C@H]1Nc1ncc2cc(-c3c(Cl)c(OC)cc(OC)c3Cl)c(=O)n(CCOC)c2n1 [Compound I-295]
12 | < 100 | 101 to 500 | < 100 | – | – | – | C=CC(=O)Nc1cccc(F)c1Nc1ncc2cc(-c3c(Cl)c(OC)cc(OC)c3Cl)c(=O)n(C)c2n1 [Compound I-259]
13 | < 100 | < 100 | < 100 | – | – | – | C=CC(=O)N[C@H]1CN(c2cc[nH]n2)C[C@H]1Nc1ncc2cc(-c3c(Cl)c(OC)cc(OC)c3Cl)c(=O)n(C)c2n1 [Compound I-292]
14 | < 100 | – | < 100 | < 100 | – | – | C=CC(=O)N[C@H]1COC[C@H]1Nc1ncc2cc(-c3c(Cl)c(OC)cc(OCC)c3Cl)c(=O)n(C)c2n1 [Compound I-291]
15 | < 100 | 101 to 500 | < 100 | – | < 100 | – | C=CC(=O)Nc1cc(-c2nnnn2C)ccc1Nc1ncc2cc(-c3c(Cl)c(OC)cc(OC)c3Cl)c(=O)n(C)c2n1 [Compound I-276]
16 | < 100 | 101 to 500 | < 100 | – | – | – | C=CC(=O)Nc1cc(F)c(F)cc1Nc1ncc2cc(-c3c(Cl)c(OC)cc(OC)c3Cl)c(=O)n(C)c2n1 [Compound I-257]
17 | < 100 | – | < 100 | 101 to 500 | – | – | C=CC(=O)N[C@H]1COC[C@H]1Nc1ncc2cc(-c3c(Cl)c(OC)cc(OC)c3Cl)c(=O)nc-2n1C[C@H]1CCN(C(C)=O)C1 [Compound I-299]
18 | < 100 | – | < 100 | – | – | – | C=CC(=O)Nc1nc(C)ccc1Nc1ncc2cc(-c3c(Cl)c(OC)cc(OC)c3Cl)c(=O)n(C)c2n1 [Compound I-278]
19 | < 100 | – | < 100 | – | – | – | C=CC(=O)N[C@H]1COC[C@H]1Nc1ncc2cc(-c3cc(OC)cc(OC)c3Cl)c(=O)nc-2n1C [Compound I-306]
20 | < 100 | – | < 100 | – | – | – | C#CC(=O)N[C@H]1COC[C@H]1Nc1ncc2cc(-c3c(Cl)c(OC)cc(OC)c3Cl)c(=O)n(C)c2n1 [Compound I-251]
21 | < 100 | – | < 100 | 501 to 999 | – | < 100 | C=CC(=O)Nc1ccccc1Nc1ncc2cc(-c3c(Cl)c(OC)cc(OC(F)F)c3Cl)c(=O)n(C)c2n1 [Compound I-289]

Row | IC50 (FGFR4-WT) [nM] | GI50 (Huh7 cells; Homo sapiens, Huh-7, 120 hr) [nM] | EC50 (pFGFR4 (Huh7 cells)) [nM] | GI50 (Huh7 cells; [1]) [nM] | GI50 (MDA-MB-453 cells; Homo sapiens) [nM] | GI50 (MDA-MB-453 cells) [nM] | Compound
22 | – | 101 to 500 | – | – | – | – | C=CC(=O)N[C@H]1COC[C@H]1Nc1ncc2cc(-c3c(C)c(OC)cc(OC)c3C)c(=O)n(C)c2n1 [Compound I-294]
23 | < 100 | – | 101 to 500 | – | – | – | C=CC(=O)Nc1c(Nc2ncc3cc(-c4c(Cl)c(OC)cc(OC)c4Cl)c(=O)n(C)c3n2)ccc(F)c1F [Compound I-282]
24 | < 100 | – | < 100 | – | – | – | C=CC(=O)Nc1ccc(C(F)(F)F)cc1Nc1ncc2cc(-c3c(Cl)c(OC)cc(OC)c3Cl)c(=O)n(C)c2n1 [Compound I-258]
25 | 101 to 500 | – | 101 to 500 | – | – | – | C=CC(=O)N[C@@H]1CN(c2cc[nH]n2)C[C@@H]1Nc1ncc2cc(-c3c(Cl)c(OC)cc(OC)c3Cl)c(=O)n(C)c2n1 [Compound I-293]
26 | < 100 | – | < 100 | – | – | – | C=CC(=O)NC1CC(=O)CC1Nc1ncc2cc(-c3c(Cl)c(OC)cc(OC)c3Cl)c(=O)n(C)c2n1 (stereo not shown) [Compound I-286]
27 | < 100 | – | < 100 | – | – | – | C=CC(=O)NC1CC(F)(F)CC1Nc1ncc2cc(-c3c(Cl)c(OC)cc(OC)c3Cl)c(=O)n(C)c2n1 (stereo not shown) [Compound I-288]
28 | < 100 | – | < 100 | < 100 | – | – | C=CC(=O)N[C@H]1COC[C@H]1Nc1ncc2cc(-c3c(Cl)c(OC)cc(OC)c3Cl)c(=O)nc-2n1CC1CCOC1 (stereo partly shown) [Compound I-298]
29 | < 100 | 101 to 500 | < 100 | – | – | – | C=CC(=O)N[C@H]1COC[C@H]1Nc1ncc2cc(-c3c(Cl)c(OC)cc(OC)c3Cl)c(=O)n(C[C@@H]3CCN(C(C)=O)C3)c2n1 [Compound I-307]
30 | < 100 | – | < 100 | – | – | – | C=CC(=O)N[C@H]1COC[C@H]1Nc1ncc2cc(-c3cc(C(=O)Nc4cccc(C(C)(C)C)c4)ccc3Cl)c(=O)n(C)c2n1 [Compound I-265]
31 | < 100 | – | < 100 | 101 to 500 | – | – | C=CC(=O)N[C@H]1COC[C@H]1Nc1ncc2cc(-c3cc(OC)cc(OC)c3Cl)c(=O)n(CC3CCN(C(C)=O)C3)c2n1 (stereo partly shown) [Compound I-308]
32 | < 100 | 101 to 500 | < 100 | – | < 100 | – | C=CC(=O)Nc1cc(N2CCN(CC)CC2)ccc1Nc1ncc2cc(-c3c(Cl)c(OC)cc(OC)c3Cl)c(=O)n(C)c2n1 [Compound I-269]
33 | < 100 | – | < 100 | – | – | – | C=CS(=O)(=O)N[C@H]1CCC[C@H]1Nc1ncc2cc(-c3c(Cl)c(OC)cc(OC)c3Cl)c(=O)n(C)c2n1 [Compound I-253]
34 | – | – | – | 101 to 500 | – | – | C=CC(=O)N[C@H]1COC[C@H]1Nc1ncc2cc(-c3cc(OC)cc(OC)c3Cl)c(=O)n(C)c2n1 [Compound I-254]
35 | – | < 100 | – | – | < 100 | – | C=CC(=O)N[C@H]1COC[C@H]1Nc1ncc2cc(-c3c(F)c(OC)cc(OC)c3Cl)c(=O)n(C)c2n1 [Compound I-279]
36 | < 100 | – | < 100 | – | – | – | C=CC(=O)N[C@H]1COC[C@H]1Nc1ncc2cc(-c3cc(OC)cc(OC)c3F)c(=O)n(C)c2n1 [Compound I-274]
37 | < 100 | – | < 100 | < 100 | – | – | C=CC(=O)N[C@H]1COC[C@H]1Nc1ncc2cc(-c3cc(OC)cc(OC)c3Cl)c(=O)nc-2n1C[C@H]1CCN(C(C)=O)C1 [Compound I-301]
38 | < 100 | – | < 100 | – | – | – | C=CC(=O)N[C@H]1COC[C@H]1Nc1ncc2cc(-c3c(Cl)c(OC)cc(OC)c3Cl)c(=O)n(C(C)C)c2n1 [Compound I-296]
39 | < 100 | – | < 100 | – | – | – | C=CC(=O)Nc1cc(-c2ccn(C)n2)ccc1Nc1ncc2cc(-c3c(Cl)c(OC)cc(OC)c3Cl)c(=O)n(C)c2n1 [Compound I-267]
40 | < 100 | – | 101 to 500 | – | – | – | C=CC(=O)NC1CC(O)CC1Nc1ncc2cc(-c3c(Cl)c(OC)cc(OC)c3Cl)c(=O)n(C)c2n1 (stereo not shown) [Compound I-284]
41 | < 100 | – | < 100 | < 100 | – | < 100 | C=CC(=O)Nc1ccc(F)c(F)c1Nc1ncc2cc(-c3c(Cl)c(OC)cc(OC)c3Cl)c(=O)n(C)c2n1 [Compound I-285]

Row | Compound | IC50 (FGFR4-WT) [nM] | GI50 (Huh7 cells; Homo sapiens, Huh-7, 120 hr) [nM] | EC50 (pFGFR4 (Huh7 cells)) [nM] | GI50 (Huh7 cells; [1]) [nM] | GI50 (MDA-MB-453 cells; Homo sapiens) [nM] | GI50 (MDA-MB-453 cells) [nM]
42 | C=CC(=O)NC1CCCCC1Nc1ncc2c(n1)N(CCF)C(=O)N(c1c(Cl)c(OC)cc(OC)c1Cl)C2 (racemic) [Compound I-106] | 101 to 500 | – | – | – | – | –
43 | C=CC(=O)NC1CN(C(C)=O)CC1Nc1ncc2c(n1)N(C)C(=O)N(c1c(Cl)c(OC)cc(OC)c1Cl)C2 (racemic) [Compound I-139] | < 100 | – | – | – | – | –
44 | C=CC(=O)NC1CN(C)CC1Nc1ncc2c(n1)N(C)C(=O)N(c1c(Cl)c(OC)cc(OC)c1Cl)C2 (racemic) [Compound I-138] | 101 to 500 | – | – | – | – | –
